The results in this text go back to patent EP4715056A1, “BIO-BASED TRANS-ACONITATE, PREPARATION METHOD THEREFOR AND USE THEREOF” (Qingdao Institute of Bioenergy and Bioprocess Technology, …, priority 2023, dated 2024).

Common to all, as to format: physicochemical
The nature of data set [1]: Water content (Karl Fischer moisture meter). The note with it: aconitate/citrate products, Table 4. The text has this:
6. Water content: a Karl Fischer moisture meter is used to test the water content (retained to two decimal places).

The nature of data set [2]: Residual amounts of fat-soluble and water-soluble pigments (HPLC). Particulars: aconitate/citrate products, Table 4. The method, then: 7. Residual amounts of fat-soluble pigments and water-soluble pigments: • a high-performance liquid chromatograph (HPLC) was used, and the instrument sensitivity and stability of the detector should comply with the provisions of GB/T 16631-2008. Chromatographic column: C18 column; injector: 10 µL micro-syringe; solvent: acetonitrile (HPLC grade); acquisition time: 15 min; mobile phase: 80% acetonitrile (HPLC grade) and 20% deionized water; injection volume: 1 µL; wavelength: 230 nm.
Test: the instrument was adjusted according to the above provisions. After the baseline was stable, 0.2 µL of the sample was injected using a micro-syringe, and the integrator or chromatographic workstation was started at the same time. A pigment concentration-integral area standard curve was established by testing the integral areas of pigments with different concentrations. When the pigment content was measured, the corresponding pigment integral area was automatically given by the instrument, and the pigment concentration was obtained by comparing with the standard curve. The ratio of the pigment concentration to the sample concentration is the pigment content.

Data set [3] in a line: Tensile properties (GB/T 1040-2006): tensile modulus at 100%, elongation at break, elastic modulus. The note with it: PVC plastic with 35 parts plasticizer; 50 mm/min, 25°C. The method, then: (§1) The aconitates and tributyl citrate prepared in the above examples and comparative examples were added as plasticizers to PVC resin to obtain PVC plastics. The PVC plastics include 100 parts of PVC resin, 35 parts of plasticizer, 2 parts of oxidized polyethylene wax, and 5 parts of octyltin maleate. The above raw materials were mixed and prepared using the same mixing process to obtain finished PVC products. The performance tests were performed on different plasticizers and the obtained PVC finished products in the above examples and comparative examples. […] Three points were selected for each group of samples, each point was tested once, and a median value was taken. • 2. […] Compatibility: tests were performed using a water value method. Since water molecules are polar, the compatibility between the plasticizer and water can characterize the compatibility between the plasticizer and polar materials (PVC, PLA, and nitrile rubber). When a certain plasticizer has good compatibility with water, it has good compatibility with PVC, and vice versa. In the experiment, 2.5 g of plasticizer and 25 g of acetone were added to a beaker, titrated with a burette filled with deionized water, and agitated while titrating until turbidity appears, and the volume of deionized water consumed was recorded. • 4. Glass transition temperature (Tg): the glass transition temperature was tested using a dynamic mechanical analyzer. Test conditions: nitrogen was taken as the carrier gas, at a test temperature range of -40 to 80°C, a heating rate of 3°C/min, and a frequency of 1 Hz.

A short description of data set [4]: Glass transition temperature (dynamic mechanical analyzer). Particulars: PVC plastic with 35 parts plasticizer; -40 to 80°C, 3°C/min, 1 Hz. How it is done: as §1
The nature of data set [5]: Chromaticity (platinum-cobalt colorimetry). Particulars: aconitate/citrate products, Table 4; colour comparison at 25°C. The method, then: 3. Chromaticity: preparation of 500# platinum-cobalt colorimetric standard stock solution: 1.2450 g of potassium chloroplatinate and 1.0000 g of cobalt chloride were weighed, with an accuracy of 0.0002 g, the mixture was dissolved in 100 mL of hydrochloric acid, and then diluted to 1000 mL with distilled water. This solution is just the 500# colorimetric standard comparison solution.
Preparation of colorimetric standards below 500#: different amounts of the 500# stock solution was prepared, and diluted with distilled water to the volume of a colorimetric tube to prepare colorimetric standard solutions of any number. The calculation formula is as follows: V = (N×V1)/500 [formula]
In the formula, V is the volume of the 500# standard stock solution taken to prepare the N# colorimetric standard solution, in mL; V1 is the volume of the colorimetric tube used, in mL; and N is the number of the colorimetric standard solution to be prepared.
Color comparison determination was performed at 25°C.

Data set [6] in a line: Hardness (Shore hardness tester, GB/T 531-2008). Particulars: PVC plastic: 100 parts PVC resin, 35 parts plasticizer, 2 parts oxidized polyethylene wax, 5 parts octyltin maleate. How it is done:
as §1, with “The PVC plastics include 100 parts of PVC resin, 35 parts of plasticizer, 2 parts of oxidized polyethylene wax, and 5 parts of octyltin maleate.” left out

The nature of data set [7]: Compatibility (water value method). The note with it: 2.5 g plasticizer and 25 g acetone titrated with deionized water until turbidity; Table 5. How it is done: as §1
Data set [8] in a line: Acid value (KOH titration). The note with it: aconitate/citrate products, Table 4. How it is done:
The aconitates and citrates prepared in the above examples and comparative examples were tested for acid value, purity, chromaticity, yield, triester conversion rate, and water content. […] The mixture was neutralized with 0.02 mol·L^-1 potassium hydroxide aqueous solution until a faint pink color appears, and the consumed volume Vo was recorded. 1 g of the sample (accurate to 0.01 g) was weighed using a ground-neck conical flask, then one portion of the above neutralized solution was added. After the sample was completely dissolved, the sample was titrated with 0.02 mol·L^-1 potassium hydroxide-ethanol standard titration solution (the titration should be completed within 30 seconds) until a faint pink color appeared and persisted for 5 seconds without fading, which was considered as an end point. The consumed volume V was recorded. […] Chromatographic column: C18 column; injector: 10 µL micro-syringe; solvent: acetonitrile (HPLC grade); acquisition time: 15 min; mobile phase: 80% acetonitrile (HPLC grade) and 20% deionized water; injection volume: 1 µL; wavelength: 230 nm.

Counter-ions that a name gives are not always drawn.

Molecule `CCCCOC(=O)C=C(CC(=O)OCCCC)C(=O)OCCCC` [Comparative Example 1, tributyl aconitate, reference compound] returned a Water content in data set [1] of 0.03%. In addition, in data set [2], the “Residual amounts of fat-soluble pigments” value came to 16424 ppm and the “Residual amounts of water-soluble pigments” value is 13861 ppm. Moreover, in data set [3], the Elastic modulus is recorded as 192.2 MPa, the Elongation at break is given as 223.2% and the “Tensile modulus at 100%” value worked out at 17.9 MPa. For the same molecule, the Tg in data set [4] is 30.7 °C. In addition, the Chromaticity in data set [5] is given as more than 500 Pt-Co. Also, in data set [6], the “Hardness/Shore D” value is 46 Shore D. This molecule displayed a Compatibility in data set [7] of 10.8 mL. The same molecule had an Acid value in data set [8] of 0.05 KOH/g.

In the case of `CCCCOC(=O)C=C(CC(=O)OCCCC)C(=O)OCCCC` [Comparative Example 2, tributyl aconitate, reference compound], the Water content in data set [1] is on record as 0.05%. Also, in data set [2], the “Residual amounts of fat-soluble pigments” value came to 2406 ppm and the “Residual amounts of water-soluble pigments” value is on record as 2248 ppm. Besides, in data set [3], the Elastic modulus is reported as 187.3 MPa, the Elongation at break worked out at 231.4% and the “Tensile modulus at 100%” value is reported as 17.4 MPa. The molecule also gave a Tg in data set [4] of 28.4 °C. This molecule showed a Chromaticity in data set [5] of 120 Pt-Co. Moreover, the “Hardness/Shore D” value in data set [6] was 45 Shore D. In data set [7], this molecule showed a Compatibility of 12.5 mL. This molecule also yielded an Acid value in data set [8] of 0.05 KOH/g.

As to `CCCCOC(=O)C=C(CC(=O)OCCCC)C(=O)OCCCC` [Comparative Example 3, tributyl aconitate, reference compound], in data set [1], the Water content was found to be 0.04%. Also, in data set [2], the “Residual amounts of fat-soluble pigments” value was found to be 2864 ppm and the “Residual amounts of water-soluble pigments” value came to 2698 ppm. Moreover, in data set [3], the Elastic modulus stood at 186.7 MPa, the Elongation at break is reported as 233.6% and the “Tensile modulus at 100%” value amounted to 17.4 MPa. Besides, the Tg in data set [4] came to 28.7 °C. This molecule registered a Chromaticity in data set [5] of 150 Pt-Co. Also, the “Hardness/Shore D” value in data set [6] was 45 Shore D. This molecule returned a Compatibility in data set [7] of 12.5 mL. In data set [8], this molecule came in with an Acid value of 0.05 KOH/g.

With `CCCCOC(=O)CC(O)(CC(=O)OCCCC)C(=O)OCCCC` [Comparative Example 4, tributyl citrate, reference compound], the Water content in data set [1] was determined as 0.04%. In data set [2], the “Residual amounts of fat-soluble pigments” value is on record as 3054 ppm and the “Residual amounts of water-soluble pigments” value was 2156 ppm. For the same molecule, in data set [3], the Elastic modulus is recorded as 274.8 MPa, the Elongation at break is listed as 201.3% and the “Tensile modulus at 100%” value was 18.1 MPa. Also, the Tg in data set [4] stood at 39.7 °C. Also, in data set [5], the Chromaticity was found to be 150 Pt-Co. For the same molecule, in data set [6], the “Hardness/Shore D” value worked out at 51 Shore D. The same molecule displayed a Compatibility in data set [7] of 13.9 mL. In data set [8], this molecule showed an Acid value of 0.05 KOH/g.

On to `CCCCOC(=O)CC(O)(CC(=O)OCCCC)C(=O)OCCCC` [Comparative Example 5, tributyl citrate, reference compound], for which, in data set [1], the Water content was 0.03%. Moreover, in data set [2], the “Residual amounts of fat-soluble pigments” value is listed as 852 ppm and the “Residual amounts of water-soluble pigments” value came out at 653 ppm. For the same molecule, in data set [3], the Elastic modulus was 226.4 MPa, the Elongation at break is 213.4% and the “Tensile modulus at 100%” value is given as 17.6 MPa. The molecule also returned a Tg in data set [4] of 37.8 °C. Further, in data set [5], the Chromaticity is on record as 50 Pt-Co. The “Hardness/Shore D” value in data set [6] is given as 48 Shore D. The molecule also returned a Compatibility in data set [7] of 14.3 mL. The same molecule came in with an Acid value in data set [8] of 0.05 KOH/g.

Take `CCCCOC(=O)C=C(CC(=O)OCCCC)C(=O)OCCCC` [Example 19, tributyl aconitate]: in data set [1], the Water content is listed as 0.03%. Also, in data set [2], the “Residual amounts of fat-soluble pigments” value is reported as 431 ppm and the “Residual amounts of water-soluble pigments” value came out at 405 ppm. In data set [3], the Elastic modulus came out at 74.6 MPa, the Elongation at break amounted to 260.1% and the “Tensile modulus at 100%” value stood at 14.6 MPa. In data set [4], this molecule yielded a Tg of 27.6 °C. Also, in data set [5], the Chromaticity is 30 Pt-Co. Besides, in data set [6], the “Hardness/Shore D” value is given as 41 Shore D. The molecule also had a Compatibility in data set [7] of 16.7 mL. In addition, the Acid value in data set [8] was 0.05 KOH/g.

As to `CCCCC(CC)COC(=O)C=C(CC(=O)OCC(CC)CCCC)C(=O)OCC(CC)CCCC` (stereo not shown) [Example 20, tri(2-ethylhexyl) aconitate], the Water content in data set [1] worked out at 0.05%. In data set [2], the “Residual amounts of fat-soluble pigments” value was found to be 634 ppm and the “Residual amounts of water-soluble pigments” value was found to be 610 ppm. In data set [3], the Elastic modulus is 301.6 MPa, the Elongation at break came out at 181.6% and the “Tensile modulus at 100%” value is on record as 19.7 MPa. This molecule also yielded a Tg in data set [4] of 42.5 °C. Besides, the Chromaticity in data set [5] was 30 Pt-Co. For the same molecule, the “Hardness/Shore D” value in data set [6] amounted to 54 Shore D. The Compatibility in data set [7] was determined as 10.7 mL. Further, the Acid value in data set [8] is given as 0.05 KOH/g.

In data set [1], `CCOC(=O)C=C(CC(=O)OCC)C(=O)OCC` [Example 21, triethyl aconitate] showed a Water content of 0.02%. Moreover, in data set [2], the “Residual amounts of fat-soluble pigments” value amounted to 385 ppm and the “Residual amounts of water-soluble pigments” value came out at 328 ppm. Also, in data set [3], the Elastic modulus turned out to be 135.5 MPa, the Elongation at break came out at 243.6% and the “Tensile modulus at 100%” value amounted to 15.8 MPa. The molecule further displayed a Tg in data set [4] of 28.2 °C. The Chromaticity in data set [5] was 30 Pt-Co. Also, the “Hardness/Shore D” value in data set [6] was found to be 43 Shore D. In data set [7], this molecule returned a Compatibility of 18.4 mL. The Acid value in data set [8] amounted to 0.05 KOH/g.
